Laboratory results reported in US12180187B2, “1-phenyl-5-azinylpyrazolyl-3-oxyalkyl acids and their use for controlling unwanted plant growth” (BAYER AKTIENGESELLSCHAFT, priority 2019, dated 2024).

Assays:
AMARE [1] = test: Pre-emergence action at 320 g/ha against AMARE; type: in vivo, Amaranthus retroflexus; settings: visual scoring after about 3 weeks vs untreated controls; for pest or weed control at 320 g/ha: Amaranthus retroflexus, 504 h
Procedure, shortened: (§1)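 Percent herbicidal activity was assessed by eye roughly three weeks post-application, comparing with untreated plants. Treatment consisted of applying formulated compound in water plus 0.5% additive to covering soil at 600 l/ha before emergence.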

STEME = test: Pre-emergence action against STEME, 1280 g/ha; type: in vivo, Stellaria media; settings: scored visually after about 3 weeks vs untreated controls (100% = plants have died); for pest or weed control at 1280 g/ha: Stellaria media, 504 h
Procedure, shortened: (§2)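 Each pot was doubly sown in sandy loam and covered, then its soil surface was treated with compound suspension or emulsion containing 0.5% additive at 600 L/ha water. Plants grew in a greenhouse; effect was rated visually as percentages versus controls after about 3 weeks.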

VERPE = test: Pre-emergence action at 320 g/ha against VERPE; type: in vivo, Veronica persica; settings: visual scoring after about 3 weeks vs untreated controls; for pest or weed control at 320 g/ha: Veronica persica, 504 h
Procedure, shortened: as §1

POAAN [2] = test: Pre-emergence action against POAAN, 1280 g/ha; type: in vivo, Poa annua; settings: visual scoring after about 3 weeks vs untreated controls, 100% = plants have died, 0% = like control plants; for pest or weed control at 1280 g/ha: Poa annua, 504 h
Procedure, shortened: as §2

SETVI [3] = test: Pre-emergence action at 320 g/ha against SETVI; type: in vivo, Setaria viridis; settings: visual scoring after about 3 weeks vs untreated controls; for pest or weed control at 320 g/ha: Setaria viridis, 504 h
Procedure, shortened: as §1

AMARE [4] = test: Pre-emergence action against AMARE, 1280 g/ha; type: in vivo, Amaranthus retroflexus; settings: scored visually after about 3 weeks vs untreated controls (100% = plants have died); for pest or weed control at 1280 g/ha: Amaranthus retroflexus, 504 h
Procedure, shortened: as §2

ECHCG = test: Pre-emergence action against ECHCG, 1280 g/ha; type: in vivo, Echinochloa crus-galli; settings: visual scoring after about 3 weeks vs untreated controls, 100% = plants have died, 0% = like control plants; for pest or weed control at 1280 g/ha: Echinochloa crus-galli, 504 h
Procedure, shortened: as §2

POAAN [5] = test: Post-emergence action against POAAN, 1.28 kg/ha; type: in vivo, Poa annua; settings: dosage 1280 g/ha, visual rating about 3 weeks after treatment vs untreated controls; for pest or weed control at 1280 g/ha: Poa annua, 504 h
Procedure, shortened: (§3)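 Greenhouse-grown weeds (sandy loam, twin-sown pots) were treated 2–3 weeks post-sowing at one leaf. The spray was an aqueous WP/EC preparation plus 0.5% additive, applied at 600 L/ha. Scoring was visual at ~3 weeks, 0–100% versus untreated controls.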

DIGSA = test: Pre-emergence action at 320 g/ha against DIGSA; type: in vivo, Digitaria sanguinalis; settings: visual scoring after about 3 weeks vs untreated controls; for pest or weed control at 320 g/ha: Digitaria sanguinalis, 504 h
Procedure, shortened: as §1

SETVI [6] = test: Pre-emergence action against SETVI, 1280 g/ha; type: in vivo, Setaria viridis; settings: visual scoring after about 3 weeks vs untreated controls, 100% = plants have died, 0% = like control plants; for pest or weed control at 1280 g/ha: Setaria viridis, 504 h
Procedure, shortened: as §2

POLCO = test: Pre-emergence action at 320 g/ha against POLCO; type: in vivo, Fallopia convolvulus (Polygonum convolvulus); settings: visual scoring after about 3 weeks vs untreated controls; for pest or weed control at 320 g/ha: Fallopia convolvulus, 504 h
Procedure, shortened: as §1

MATIN = test: Pre-emergence action against MATIN, 1280 g/ha; type: in vivo, Tripleurospermum inodorum (Matricaria inodora); settings: scored visually after about 3 weeks vs untreated controls (100% = plants have died); for pest or weed control at 1280 g/ha: Tripleurospermum inodorum, 504 h
Procedure, shortened: as §2

ALOMY [7] = test: Post-emergence action against ALOMY, 1.28 kg/ha; type: in vivo, Alopecurus myosuroides; settings: dosage 1280 g/ha, visual rating about 3 weeks after treatment vs untreated controls
Procedure, shortened: as §3

ALOMY [8] = test: Pre-emergence action at 320 g/ha against ALOMY; type: in vivo, Alopecurus myosuroides; settings: scored visually after about 3 weeks vs untreated controls (100% = plants have died); for pest or weed control at 320 g/ha: Alopecurus myosuroides, 504 h
Procedure, shortened: as §1

AVEFA = test: Pre-emergence action at 320 g/ha against AVEFA; type: in vivo; settings: visual scoring after about 3 weeks vs untreated controls; for pest or weed control at 320 g/ha: Avena fatua, 504 h
Procedure, shortened: as §1

| Compound | Pre-emergence action against AMARE in % (AMARE [1]) [%] | Pre-emergence action against STEME (STEME) [%] | Pre-emergence action against VERPE in % (VERPE) [%] | Pre-emergence action against POAAN (POAAN [2]) [%] | Pre-emergence action against SETVI in % (SETVI [3]) [%] | Pre-emergence action against AMARE (AMARE [4]) [%] | Pre-emergence action against ECHCG (ECHCG) [%] | Post-emergence action against POAAN (POAAN [5]) [%] | Pre-emergence action against DIGSA in % (DIGSA) [%] | Pre-emergence action against SETVI (SETVI [6]) [%] | Pre-emergence action against POLCO in % (POLCO) [%] | Pre-emergence action against MATIN (MATIN) [%] | Post-emergence action against ALOMY (ALOMY [7]) [%] | Pre-emergence action at 320 g/ha against ALOMY in % (ALOMY [8]) [%] | Pre-emergence action against AVEFA in % (AVEFA) [%] | pest or weed control at 320 g/ha (AMARE [1]) [%] | pest or weed control at 1280 g/ha (STEME) [%] | pest or weed control at 320 g/ha (VERPE) [%] | pest or weed control at 1280 g/ha (POAAN [2]) [%] | pest or weed control at 320 g/ha (SETVI [3]) [%] | also measured |
| --- | --- | --- | --- | --- | --- | --- | --- | --- | --- | --- | --- | --- | --- | --- | --- | --- | --- | --- | --- | --- | --- |
| COC(=O)CNC(=O)COc1nn(-c2ccccc2F)c(-c2ccc(F)nc2)c1Br [Example X-002] | 100 | 100 | 100 | 100 | 100 | 100 | 90 | 100 | 100 | 100 | 100 | 90 | 90 | 100 | 100 |  |  |  |  |  |  |
| CS(=O)(=O)NC(=O)COc1nn(-c2ccccc2F)c(-c2ccc(F)nc2)c1Br [Example X-004] | 90 | 100 | 100 | 100 | 100 | 100 | 100 | 100 | 100 | 100 | 90 | 100 | 100 | 100 | 90 |  |  |  |  |  |  |
| CN(C)S(=O)(=O)NC(=O)COc1nn(-c2ccccc2F)c(-c2ccc(F)nc2)c1Br [Example X-005] | 100 | 100 | 100 | 100 | 100 | 100 | 100 | 100 | 100 | 100 | 90 | 100 | 100 | 100 | 100 |  |  |  |  |  |  |
| COC(=O)CNC(=O)COc1nn(-c2ccccc2F)c(-c2ccc(F)nc2)c1C(F)(F)F [Example X-007] | 100 | 100 | 100 | 100 | 100 | 100 | 100 | 100 | 100 | 100 | 90 | 100 | 100 | 100 | 100 |  |  |  |  |  |  |
| O=C(O)COc1nn(-c2ccccc2F)c(-c2cncnc2)c1Br [VI-007, {[4-Bromo-1-(2-fluorophenyl)-5-(pyrimidin-5-yl)-1H-pyrazol-3-yl]oxy}acetic Acid] |  |  |  |  |  |  |  |  |  |  |  |  | 90 |  |  | 100 | 100 | 100 | 100 | 100 | pest or weed control at 1280 g/ha (AMARE [4]): 100%; pest or weed control at 1280 g/ha (ECHCG): 100%; pest or weed control at 1280 g/ha (POAAN [5]): 100%; pest or weed control at 320 g/ha (DIGSA): 100%; pest or weed control at 1280 g/ha (SETVI [6]): 100%; pest or weed control at 320 g/ha (POLCO): 100%; pest or weed control at 1280 g/ha (MATIN): 100%; pest or weed control at 320 g/ha (ALOMY [8]): 80%; pest or weed control at 320 g/ha (AVEFA): 90% |
| CCOC(=O)COc1nn(-c2ccc(F)cc2F)c(-c2ccc(F)nc2)c1Cl [VII-016] | 100 | 100 | 90 | 100 | 100 | 100 | 100 | 100 | 100 | 100 | 90 | 90 |  | 100 | 90 |  |  |  |  |  |  |
| COC(=O)C(C)Oc1nn(-c2ccccc2)c(-c2ccc(F)nc2)c1Cl (stereo not shown) [VII-023, Methyl 2-{[4-chloro-5-(6-fluoropyridin-3-yl)-1-phenyl-1H-pyrazol-3-yl]oxy}propanoate] |  |  |  |  |  |  |  |  |  |  |  |  |  |  |  | 100 | 100 | 80 | 100 | 100 | pest or weed control at 1280 g/ha (AMARE [4]): 100%; pest or weed control at 1280 g/ha (ECHCG): 100%; pest or weed control at 1280 g/ha (POAAN [5]): 100%; pest or weed control at 320 g/ha (DIGSA): 100%; pest or weed control at 1280 g/ha (SETVI [6]): 100%; pest or weed control at 320 g/ha (POLCO): 100%; pest or weed control at 1280 g/ha (MATIN): 90%; pest or weed control at 320 g/ha (ALOMY [8]): 100%; pest or weed control at 320 g/ha (AVEFA): 90% |
| COC(=O)C(C)Oc1nn(-c2ccccc2)c(-c2cccnc2)c1Cl (stereo not shown) [VII-032] | 100 | 100 | 100 | 100 | 90 | 100 | 100 | 100 | 90 | 100 | 90 | 90 |  | 100 | 80 |  |  |  |  |  |  |
| CCOC(=O)COc1nn(-c2ccccc2F)c(-c2ccc(F)nc2)c1C [VII-117] | 100 | 90 | 90 | 100 | 100 | 100 | 100 | 100 | 100 | 100 | 100 | 100 |  | 100 | 100 |  |  |  |  |  |  |
| CCOC(=O)COc1nn(-c2ccccc2F)c(-c2ccnc(F)c2)c1Br [VIII-003, Ethyl {[4-bromo-1-(2-fluorophenyl)-5-(2-fluoropyridin-4-yl)-1H-pyrazol-3-yl]oxy}acetate] |  |  |  |  |  |  |  |  |  |  |  |  |  |  |  | 90 | 100 | 90 | 100 | 100 | pest or weed control at 1280 g/ha (AMARE [4]): 100%; pest or weed control at 1280 g/ha (ECHCG): 100%; pest or weed control at 1280 g/ha (POAAN [5]): 100%; pest or weed control at 320 g/ha (DIGSA): 100%; pest or weed control at 1280 g/ha (SETVI [6]): 100%; pest or weed control at 320 g/ha (POLCO): 100%; pest or weed control at 1280 g/ha (MATIN): 100%; pest or weed control at 320 g/ha (ALOMY [8]): 100%; pest or weed control at 320 g/ha (AVEFA): 90% |
